Data on one compound can be found in patent US12605423B2, “Peptide inhibitors targeting methyltransfer mechanism of SARS-CoV-2” (United Arab Emirates University, priority 2021, dated 2026).

Each structure is given as a SMILES string. Entries after “also recorded” stand apart in the source; their conditions may differ.

For one assay, the system named is IL-6. It is filed as cell-based. Particulars: NCIH1792 (H1792) human lung cells, 10 μM peptide, versus PBS control.

Regarding `CSCC[C@H](NC(=O)[C@H](Cc1ccccc1)NC(=O)CNC(=O)[C@H](CO)NC(=O)CNC(=O)[C@H](CCCNC(=N)N)NC(=O)[C@H](CCCNC(=N)N)NC(=O)[C@H](CCCNC(=N)N)NC(=O)[C@H](CCC(N)=O)NC(=O)[C@H](CCCNC(=N)N)NC(=O)[C@H](CCCNC(=N)N)NC(=O)[C@H](CCCCN)NC(=O)[C@H](CCCCN)NC(=O)[C@H](CCCNC(=N)N)NC(=O)CNC(=O)[C@H](Cc1ccc(O)cc1)NC(C)=O)C(=O)N[C@@H](CC(=O)O)C(=O)N[C@@H](CC(C)C)C(=O)N[C@@H](CCCCN)C(=O)NCC(=O)N[C@@H](CCCCN)C(=O)N[C@@H](Cc1ccc(O)cc1)C(N)=O` [Peptide P3, FMDLKGKY], in the assay on SARS-CoV-2, the 90% Effective Concentration (EC90) is 3.3 µM and the 90% effect level (EC90) was put at 3.3 µM. Further, the “IL-6 induction” value in the assay on IL-6 is given as “not P2 nor P3; also recorded: does not stimulate IL-6”.

A word on the EC90: it is the point of the concentration-response curve where the effect stands at 90%. A high value points to a need for much substance.
